Results from ChEMBL document CHEMBL1201862, “PubChem BioAssay data set” (2004).
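Five compound concentrations were applied to cells in 96-well plates for 48 hours; endpoints were derived by simple linear interpolation of the resulting dose-response curve. GI50 marks 50% less growth.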 Activity calls are given as the source filed them. Rule as the data show it: active = GI50 up to about 1.1 µM and inactive = higher.

Legend:
Assay in all cases: NCI-60 cell line screen, 48 h
EKVX = system: EKVX
UO-31 = system: UO-31
ACHN = system: ACHN
SF-539 = system: SF-539
PC-3 = system: PC-3
U-251 = system: U-251
Malme-3M = system: Malme-3M
NCI-H226 = system: NCI-H226
HL-60 = system: HL-60
CAKI-1 = system: CAKI-1
SK-MEL-5 = system: SK-MEL-5
HOP-62 = system: HOP-62
TK-10 = system: TK-10
NCI-H23 = system: NCI-H23
M14 = system: M14
A498 = system: A498
OVCAR-4 = system: OVCAR-4
A549 = system: A549
SN12C = system: SN12C
CCRF-CEM = system: CCRF-CEM

Row | SMILES | GI50 (EKVX) | GI50 (UO-31) | GI50 (ACHN) | GI50 (SF-539) | GI50 (PC-3) | GI50 (U-251) | GI50 (Malme-3M) | GI50 (NCI-H226) | GI50 (HL-60) | GI50 (CAKI-1) | GI50 (SK-MEL-5) | GI50 (HOP-62) | GI50 (TK-10) | GI50 (NCI-H23) | GI50 (M14) | GI50 (A498) | GI50 (OVCAR-4) | GI50 (A549) | GI50 (SN12C) | GI50 (CCRF-CEM)
1 | COc1cc(C(=O)OC2CC(C)=CC[C@@]3(C)CC[C@](O)(C(C)C)C23)ccc1O (stereo not given in full) | 18.9 µM (inactive) | 16.4 µM (inactive) | 18.4 µM (inactive) | 14.1 µM (inactive) | 17.4 µM (inactive) | 31.3 µM (inactive) | 18.6 µM (inactive) | 15.6 µM (inactive) | 31.6 µM (inactive) | 16.3 µM (inactive) | 17.5 µM (inactive) | 17.2 µM (inactive) | 15 µM (inactive) | 17.8 µM (inactive) | 17 µM (inactive) | 18.9 µM (inactive) | 15.9 µM (inactive) | 12.9 µM (inactive) | 18.4 µM (inactive) | 26.3 µM (inactive)
2 | COC(=O)C1=C(OC(=O)/C(=C/c2ccccc2)c2ccc(Cl)cc2)C(C(=O)OC)[C@@]2(O)[C@@H](C(=O)OC)[C@H](C)C[C@@H]1[C@@H]2C(=O)OC (stereo not given in full) | > 100 µM (inactive) | > 100 µM (inactive) | > 100 µM (inactive) | > 100 µM (inactive) | > 100 µM (inactive) | > 100 µM (inactive) | > 100 µM (inactive) | > 100 µM (inactive) | > 100 µM (inactive) | > 100 µM (inactive) | > 100 µM (inactive) | > 100 µM (inactive) | > 100 µM (inactive) | > 100 µM (inactive) | > 100 µM (inactive) | > 100 µM (inactive) | > 100 µM (inactive) | > 100 µM (inactive) | > 100 µM (inactive) | > 100 µM (inactive)
3 | CCN(CC)CCNc1ccc2nnn3c4ccc(O)cc4c(=O)c1c23 | 6.98 µM (inactive) | 0.608 µM (active) | 0.745 µM (active) | 1.71 µM (inactive) | 3.09 µM (inactive) | 2.86 µM (inactive) | 4.93 µM (inactive) | 3.35 µM (inactive) | 2.05 µM (inactive) | 0.69 µM (active) | 1.64 µM (inactive) | 1.76 µM (inactive) | 5.56 µM (inactive) | 5.73 µM (inactive) | 6.65 µM (inactive) | 8.83 µM (inactive) | 2.64 µM (inactive) | 0.161 µM (active) | 1.64 µM (inactive) | 0.586 µM (active)
4 | Cn1c(=O)nc2n(-c3ccc(Cl)cc3)c3cc(Cl)ccc3nc-2c1=O | 8.85 µM (inactive) | 11.4 µM (inactive) | 12.6 µM (inactive) | 16.5 µM (inactive) | 9.42 µM (inactive) | 17.7 µM (inactive) | 1.89 µM (inactive) | 25.8 µM (inactive) | 2.06 µM (inactive) | 10.9 µM (inactive) | 1.67 µM (inactive) | 18.1 µM (inactive) | 20 µM (inactive) | 3.33 µM (inactive) | 2.07 µM (inactive) | 14.3 µM (inactive) | 1.32 µM (inactive) | 12.9 µM (inactive) | 6.21 µM (inactive) | 5.82 µM (inactive)
5 | Cc1c2c(c(C)n1-c1ccccc1)C(=O)N(CCSC(=N)N)C2=O | 9.75 µM (inactive) | > 100 µM (inactive) | 32.6 µM (inactive) | > 100 µM (inactive) | > 100 µM (inactive) | 68.9 µM (inactive) | > 100 µM (inactive) | > 100 µM (inactive) | > 100 µM (inactive) | 50 µM (inactive) | 1.96 µM (inactive) | 83.6 µM (inactive) | > 100 µM (inactive) | 4.85 µM (inactive) | > 100 µM (inactive) | 32.4 µM (inactive) | 9.29 µM (inactive) | > 100 µM (inactive) | > 100 µM (inactive) | > 100 µM (inactive)
6 | OCCCCCCOc1ccc(-c2cc(-c3ccccn3)nc(-c3ccccn3)c2)cc1 | 0.18 µM (active) | 0.202 µM (active) | 0.108 µM (active) | 0.143 µM (active) | 0.034 µM (active) | 0.0877 µM (active) | 0.404 µM (active) | 0.104 µM (active) | 0.0853 µM (active) | 0.256 µM (active) | 0.243 µM (active) | 0.172 µM (active) | 0.357 µM (active) | 0.604 µM (active) | 0.202 µM (active) | 1.11 µM (active) | 0.177 µM (active) | 0.23 µM (active) | 0.424 µM (active) | 0.026 µM (active)
7 | O=C(NNC(=S)Nc1ccccc1)C12CC3CC(CC(C3)C1)C2 | 36 µM (inactive) | 4.58 µM (inactive) | 20.3 µM (inactive) | 25.8 µM (inactive) | 18.2 µM (inactive) | 12.9 µM (inactive) | 20 µM (inactive) | 26.7 µM (inactive) | 7.01 µM (inactive) | 21.9 µM (inactive) | 8.53 µM (inactive) | 35.2 µM (inactive) | 39.5 µM (inactive) | 31.8 µM (inactive) | 13.8 µM (inactive) | 21.1 µM (inactive) | 29.2 µM (inactive) | 19.9 µM (inactive) | 24.5 µM (inactive) | 6.92 µM (inactive)
8 | COC1C(N)C(OC2C(Oc3cccc4c(O)c5c(=O)oc6ccc(C)c7c(=O)oc(c34)c5c67)OC(C)C(O)C2(C)O)OC(C)C1O (stereo not given) | 0.156 µM (active) | 0.0746 µM (active) | 0.0399 µM (active) | < 0.0154 µM (active) | 0.0246 µM (active) | < 0.01 µM (active) | < 0.0107 µM (active) | 0.0201 µM (active) | 0.0416 µM (active) | 0.0159 µM (active) | 0.031 µM (active) | 0.0428 µM (active) | 0.0643 µM (active) | 0.0269 µM (active) | 0.0789 µM (active) | < 0.01 µM (active) | 0.405 µM (active) | 0.0634 µM (active) | 0.0178 µM (active) | < 0.0236 µM (active)
9 | CSc1nc(SC)c2c(C)cn(C3OC(C)C(O)C(O)C3O)c2n1 (stereo not given) | > 100 µM (inactive) | 36.3 µM (inactive) | 58.2 µM (inactive) | 21 µM (inactive) | 43.9 µM (inactive) | 62.7 µM (inactive) | > 100 µM (inactive) | 66.7 µM (inactive) | 46.2 µM (inactive) | < 0.01 µM (active) | 63.4 µM (inactive) | > 100 µM (inactive) | 62.2 µM (inactive) | 94 µM (inactive) | 87.1 µM (inactive) | 27.9 µM (inactive) | 64.1 µM (inactive) | 74.5 µM (inactive) | > 100 µM (inactive) | 45.7 µM (inactive)
10 | CC(=O)NNc1nc(C)c(C(/C=C/c2ccc([N+](=O)[O-])cc2)=N/N)s1 | 94.4 µM (inactive) | > 100 µM (inactive) | > 100 µM (inactive) | > 100 µM (inactive) | > 100 µM (inactive) | > 100 µM (inactive) | > 100 µM (inactive) | > 100 µM (inactive) | 21 µM (inactive) | > 100 µM (inactive) | > 100 µM (inactive) | 68.1 µM (inactive) | 37.9 µM (inactive) | > 100 µM (inactive) | > 100 µM (inactive) | 70.5 µM (inactive) | > 100 µM (inactive) | > 100 µM (inactive) | 84.5 µM (inactive) | > 100 µM (inactive)
